Patent US20260159520A1, “HETEROBIFUNCTIONAL COMPOUNDS AND METHODS OF TREATING DISEASE” (Halda Therapeutics OpCo, Inc., priority 2022, published 2026)

Experiments:
Format in all cases: cell-based
[1] = tested on: T-Rex 293 cell line SC3 cells lacking increased expression of androgen receptor protein; assay: Cellular growth inhibition, T-Rex 293 SC3 cells without doxycycline; details: not exposed to doxycycline, 72 hours, CellTiter-Glo 2.0
Procedure: (§1) The following types of cells were prepared for this experiment: (i) a T-Rex 293 cell line having increased expression of androgen receptor protein due to exposure to doxycycline and (ii) a T-Rex 293 cell line lacking increased expression of androgen receptor protein. Ability of the test compounds to inhibit proliferation of the foregoing cell types was evaluated according to the procedures set forth below.
(§2) The doxycycline-inducible androgen receptor protein expressing cell line was established using the following protocol: T-Rex 293 cells were purchased from Invitrogen (Cat #R71007) and transfected using Lipofectamine 2000 with the wild-type androgen receptor protein sequence cloned into the pcDNA4/TO vector. Transfected cells were selected using 400 μg/mL Zeocin (Invitrogen Cat #R25001). Following selection, single clones were raised and maintained in Dulbecco's Modified Eagle Medium (DMEM) supplemented with 10% w/w Tetracycline-free fetal bovine serum (FBS) and 250 μg/mL Zeocin. Clones were analyzed for expression of androgen receptor protein in the presence and absence of 10 ng/mL doxycycline (Sigma Cat #D9891), and a single doxycycline-inducible clone (hereinafter “SC3”) was selected for use in downstream assays.
(§3) The SC3 cells were seeded on poly-D-lysine coated, black clear-bottom 384-well plates at 2500/well, in 25 μL Phenol Red Free Dulbecco's Modified Eagle Medium (DMEM) supplemented with 10% w/w charcoal-dextran treated fetal bovine serum (FBS) and 1% w/w pen-strep, with or without 10 ng/mL doxycycline. Pen-Strep is a commercially available mixture of penicillin G and streptomycin, which is used in mammalian cell culture media to prevent bacterial contamination. Phenol Red Free Dulbecco's Modified Eagle Medium (DMEM) supplemented with 10% w/w charcoal-dextran treated fetal bovine serum (FBS) and 1% w/w pen-strep, with or without 10 ng/mL doxycycline is herein referred to as Treatment Medium. Following seeding of cells in the plates, the plates were spun at 300×g for 30 seconds, then equilibrated to room temperature for 30 minutes, and then deposited in a humidified tissue culture incubator maintained at 37° C. with 5% CO2.
(§4) At 24 hours after seeding of the cells, dilutions of test compound were prepared in DMSO and dissolved in Treatment Medium, to achieve a final DMSO concentration of 0.5% w/w, thereby providing the Test Compound Solution. A 25 μL aliquot of the Test Compound Solution was added to cells in the well plates. An equal volume of a solution containing DMSO and Treatment Medium was used as a negative control. Following treatment of cells with Test Compound Solution or said equal volume of a solution containing DMSO and Treatment Medium, the plates were spun at 300×g for 30 seconds, and then left in an incubator for 72 hours.
(§5) At the end of the treatment duration, cell viability was quantified with CellTiter-Glo 2.0 reagent (Promega Cat #G9243). For this purpose, plates were equilibrated to room temperature for 30 minutes, and then 25 μL of CellTiter-Glo 2.0 reagent was added to cells in the plate wells. Plates were then agitated on a shaker for two minutes at 500 rpm and subsequently incubated at room temperature for 10 minutes. Following incubation, the plates were spun at 3000×g for 30 seconds, then sealed with an optical adhesive cover, and luminescence readings were measured with an EnVision Plate Reader.
(§6) Data was normalized using zero luminescence for baseline. A four-parameter non-linear regression curve fit was applied to dose-response data in GraphPad Prism data analysis software to determine the half-maximal growth inhibitory concentration (GI50) for each test compound.

T47D cells = assay: Cellular growth inhibition assay for T47D cells; details: Homo sapiens, 72 hours, CellTiter-Glo 2.0
Procedure: (§7) T47D cells were purchased from American Type Cell Culture (ATCC Cat #HTB-133) and then seeded on poly-D-lysine coated, black clear-bottom 384-well plates at 3000/well in 25 μL Dulbecco's Modified Eagle Medium (DMEM) supplemented with 10% w/w Fetal bovine serum (FBS), 0.2 units/mL recombinant human insulin (Gibco Cat #12585014), and 1% w/w Pen-Strep. Pen-Strep is a commercially available mixture of penicillin G and streptomycin, which is used in mammalian cell culture media to prevent bacterial contamination. Dulbecco's Modified Eagle Medium (DMEM) supplemented with 10% w/w fetal bovine serum (FBS), 0.2 units/mL recombinant human insulin, and 1% w/w Pen-Strep is herein referred to as Treatment Medium. Following seeding of cells in the plates, the plates were spun at 300×g for 30 seconds, then equilibrated to room temperature for 30 minutes, and then deposited in a humidified tissue culture incubator maintained at 37° C. with 5% CO2.
as §4
as §5, with “Reader (Perkin Elmer).” for “Reader.”
as §6

[2] = tested on: T-Rex 293 cell line SC3 cells having increased expression of androgen receptor protein; assay: Cellular growth inhibition, T-Rex 293 SC3 cells with doxycycline (increased androgen receptor expression); details: with 10 ng/mL doxycycline (increased androgen receptor), 72 hours, CellTiter-Glo 2.0
Procedure: as §1, §2, §3, §4, §5, §6

VCaP cells = assay: Cellular growth inhibition assay for VCaP cells; details: Homo sapiens, 72 hours, CellTiter-Glo 2.0
Procedure: as §7, with “VCaP” for “T47D”, “#CRL2876)” for “#HTB-133)”, “5000/well” for “3000/well”, “(FBS)” for “(FBS), 0.2 units/mL recombinant human insulin (Gibco Cat #12585014),”, “(FBS)” for “(FBS), 0.2 units/mL recombinant human insulin,”
as §4
as §5, with “Reader. Data was normalized using zero luminescence for baseline.” for “Reader.”
A four-parameter non-linear regression curve fit was applied to dose-response data in GraphPad Prism data analysis software to determine the half-maximal growth inhibitory concentration (GI50) for each test compound.

Row | SMILES | GI50 [1] [µM] | GI50 (T47D cells) [µM] | GI50 [2] [µM] | GI50 (VCaP cells) [µM]
1 | CN(CCNS(=O)(=O)c1ccc(Nc2ncc(Br)c(Nc3cccc(F)c3C(N)=O)n2)cc1)c1ncc(C(=O)N[C@H]2C(C)(C)[C@H](Oc3ccc(C#N)c(Cl)c3)C2(C)C)cn1 [Compound I-18, 2-((2-((4-((5-bromo-4-((2-carbamoyl-3-fluorophenyl)amino)pyrimidin-2-yl)amino)phenyl)sulfonamido)ethyl)(methyl)amino)-N-((1r,3r)-3-(3-chloro-4-cyanophenoxy)-2,2,4,4-tetramethylcyclobutyl)pyrimidine-5-carboxamide] | 0.1 to 1 | < 0.5 | 0.1 to 1 | –
2 | CN(CCOCCOCCNS(=O)(=O)c1ccc(Nc2ncc(Br)c(Nc3cccc(F)c3C(N)=O)n2)cc1)c1ncc(C(=O)N[C@H]2C(C)(C)[C@H](Oc3ccc(C#N)c(Cl)c3)C2(C)C)cn1 [Compound I-19] | > 3.5 | < 0.5 | > 3.5 | –
3 | CCc1cnn2c(NCc3ccc(OCCOCCCCCOC4CCN(c5ncc(C(=O)N[C@H]6C(C)(C)[C@H](Oc7ccc(C#N)c(Cl)c7)C6(C)C)cn5)CC4)nc3)cc(N3CCCC[C@H]3CCO)nc12 [Compound I-40] | > 3.5 | – | < 0.1 | > 3.5
4 | CCc1cnn2c(NCc3ccc(OCCN4CCN(CC5CCN(c6ncc(C(=O)N[C@H]7C(C)(C)[C@H](Oc8ccc(C#N)c(Cl)c8)C7(C)C)cn6)CC5)CC4)nc3)cc(N3CCCCC3)nc12 [Compound I-48] | > 3.5 | 1.5 to 3 | 0.1 to 1 | > 3.5
5 | CCc1cnn2c(NCc3ccc(OCCCN4CCN(CC5CCN(c6ncc(C(=O)N[C@H]7C(C)(C)[C@H](Oc8ccc(C#N)c(Cl)c8)C7(C)C)cn6)CC5)CC4)nc3)cc(-c3ccccc3)nc12 [Compound I-49] | > 3.5 | 1.5 to 3 | 0.1 to 1 | > 3.5
6 | CCc1cnn2c(NCc3ccc(OCCCN4CCN(CC5CCN(c6ncc(C(=O)N[C@H]7C(C)(C)[C@H](Oc8ccc(C#N)c(Cl)c8)C7(C)C)cn6)CC5)CC4)nc3)cc(N3CCCCC3)nc12 [Compound I-50, N-((1 r,3r)-3-(3-chloro-4-cyanophenoxy)-2,2,4,4-tetramethylcyclobutyl)-2-(4-((4-(3-((5-(((3-ethyl-5-(piperidin-1-yl)pyrazolo[1,5-a]pyrimidin-7-yl)amino)methyl)pyridin-2-yl)oxy)propyl)piperazin-1-yl)methyl)piperidin-1-yl)pyrimidine-5-carboxamide] | > 3.5 | > 3 | 0.1 to 1 | > 3.5
7 | CCc1cnn2c(NCc3ccc(OCCC4CCN(CC5CCN(c6ncc(C(=O)N[C@H]7C(C)(C)[C@H](Oc8ccc(C#N)c(Cl)c8)C7(C)C)cn6)CC5)CC4)nc3)cc(N3CCCC[C@H]3CCO)nc12 [Compound I-52] | 0.1 to 1 | < 0.5 | < 0.1 | < 0.1
8 | CCc1cnn2c(NCc3ccc(OCCCN4CCN(CC5CCN(c6cnc(C(=O)N[C@H]7C(C)(C)[C@H](Oc8ccc(C#N)c(Cl)c8)C7(C)C)cn6)CC5)CC4)nc3)cc(N3CCCC[C@@H]3CCO)nc12 [Compound I-56, N-((1r,3r)-3-(3-chloro-4-cyanophenoxy)-2,2,4,4-tetramethylcyclobutyl)-5-(4-((4-(3-((5-(((3-ethyl-5-((R)-2-(2-hydroxyethyl)piperidin-1-yl)pyrazolo[1,5-a]pyrimidin-7-yl)amino)methyl)pyridin-2-yl)oxy)propyl)piperazin-1-yl)methyl)piperidin-1-yl)pyrazine-2-carboxamide] | 0.1 to 1 | – | 0.1 to 1 | 0.1 to 1
9 | CCc1cnn2c(NCc3ccc(OCCCN4CCN(CC5CCN(c6ccc(C(=O)N[C@H]7C(C)(C)[C@H](Oc8ccc(C#N)c(Cl)c8)C7(C)C)nc6)CC5)CC4)nc3)cc(N3CCCC[C@@H]3CCO)nc12 [Compound I-57, N-((1r,3r)-3-(3-chloro-4-cyanophenoxy)-2,2,4,4-tetramethylcyclobutyl)-5-(4-((4-(3-((5-(((3-ethyl-5-((R)-2-(2-hydroxyethyl)piperidin-1-yl)pyrazolo[1,5-a]pyrimidin-7-yl)amino)methyl)pyridin-2-yl)oxy)propyl)piperazin-1-yl)methyl)piperidin-1-yl)picolinamide] | 0.1 to 1 | – | 0.1 to 1 | 0.1 to 1
10 | CCc1cnn2c(NCc3ccc(N4CC(N5CCC(N6CCN(c7ncc(C(=O)N[C@H]8C(C)(C)[C@H](Oc9ccc(C#N)c(Cl)c9)C8(C)C)cn7)CC6)CC5)C4)nc3)cc(N3CCCC[C@H]3CCO)nc12 [Compound I-64] | < 0.1 | < 0.5 | < 0.1 | < 0.1
11 | CCc1cnn2c(NCc3ccc(N4CC(N5CCN(C6CCN(c7ncc(C(=O)N[C@H]8C(C)(C)[C@H](Oc9ccc(C#N)c(Cl)c9)C8(C)C)cn7)CC6)CC5)C4)nc3)cc(N3CCCC[C@H]3CCO)nc12 [Compound I-65] | < 0.1 | < 0.5 | < 0.1 | < 0.1
12 | CCc1cnn2c(NCc3ccc(N4CC(N5CCC(C6CCN(c7ncc(C(=O)N[C@H]8C(C)(C)[C@H](Oc9ccc(C#N)c(Cl)c9)C8(C)C)cn7)CC6)CC5)C4)nc3)cc(N3CCCC[C@H]3CCO)nc12 [Compound I-66] | > 3.5 | 1.5 to 3 | < 0.1 | 0.1 to 1
13 | CCc1cnn2c(NCc3ccc(N(C)CCCN4CCN(C5CN(c6ncc(C(=O)N[C@H]7C(C)(C)[C@H](Oc8ccc(C#N)c(Cl)c8)C7(C)C)cn6)C5)CC4)nc3)cc(N3CCCC[C@H]3CCO)nc12 [Compound I-81] | – | < 0.5 | – | –
